Assay results from patent US20020026053A1, “Novel 3-(substituted) -2- indolinones compounds and use thereof as inhibitors of protein kinase activity” (priority 1997, published 2002).

What follows are compounds tested on PDGF-R (assay: PDGF-R Assay (cellular ELISA, U1242 cells)).
Assay type: cell-based
Design: concentration or dose not given beside the values
Procedure, shortened: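 U1242 cells seeded in 0.5% serum, serum-starved, then exposed to compound for 2 hr at 37°C before 5–10 min ligand stimulation and lysis in HNTG. Lysate captured on receptor-antibody-coated plates; phosphotyrosine detected with polyclonal anti-pTyr, goat anti-rabbit IgG and ABTS/H2O2, A410 (ref 630 nm), versus untreated cells.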

First: N#Cc1ccccc1C=C1C(=O)Nc2ccc(CCCl)cc21 [10735/G07]
Second: O=C1Nc2ccc(CCCl)cc2C1=Cc1cccc2ccccc12 [10735/G09]
The “PDGF Kinase % Inhibition (P.119)” value of the first is higher: 12.6% for the first, 2.2% for the second.

First: O=C1Nc2ccc(CCCl)cc2C1=Cc1c(F)cccc1F [10735/G08]
Second: O=C1Nc2ccc(CCCl)cc2C1=Cc1ccc(Cl)cc1Cl [10735/G10]
The “PDGF Kinase % Inhibition (P.119)” value of the first is higher: 9.8% for the first, −8.8% for the second.

First: O=C1Nc2ccc(CCCl)cc2C1=Cc1ccc(-c2ccccc2)cc1 [10735/G11]
Second: Cc1c(Br)cc(Br)c2c1C(=Cc1ccc(-c3ccccc3)cc1)C(=O)N2 [10735/H11]
The “PDGF Kinase % Inhibition (P.119)” value of the first is lower: −5.3% for the first, 1.9% for the second.

Compared with Cc1ccccc1C=C1C(=O)Nc2c(Br)cc(Br)c(C)c21 [10735/H02], Cc1c(Br)cc(Br)c2c1C(=Cc1ccccc1C#N)C(=O)N2 [10735/H07] is higher in “PDGF Kinase % Inhibition (P.119)” value: −4.7% for the first, −0.9% for the second.

First: Cc1c(Br)cc(Br)c2c1C(=Cc1ccc(F)c(F)c1)C(=O)N2 [10735/H03]
Second: Cc1c(Br)cc(Br)c2c1C(=Cc1c(F)cccc1F)C(=O)N2 [10735/H08]
The “PDGF Kinase % Inhibition (P.119)” value of the first is higher: 1.2% for the first, −2.6% for the second.

First: Cc1c(Br)cc(Br)c2c1C(=Cc1cc(F)cc(F)c1)C(=O)N2 [10735/H04]
Second: Cc1c(Br)cc(Br)c2c1C(=Cc1cc(C(F)(F)F)cc(C(F)(F)F)c1)C(=O)N2 [10735/H06]
The “PDGF Kinase % Inhibition (P.119)” value of the first is lower: 1.2% for the first, 6.4% for the second.

Going from Cc1c(Br)cc(Br)c2c1C(=Cc1cccc(C(F)(F)F)c1)C(=O)N2 [10735/H05] to Cc1c(Br)cc(Br)c2c1C(=Cc1ccc(Cl)cc1Cl)C(=O)N2 [10735/H10], the “PDGF Kinase % Inhibition (P.119)” value falls from 9.1% to −0.2%.

Going from Cc1c(Br)cc(Br)c2c1C(=Cc1cccc3ccccc13)C(=O)N2 [10735/H09] to Cc1c(Br)ccc2c1C(=Cc1ccccc1F)C(=O)N2 [10736/C08], the “PDGF Kinase % Inhibition (P.119)” value falls from 6.4% to 1.4%.

First: O=C1Nc2c(Br)cc(Br)cc2C1=Cc1ccc(Cl)cc1 [10736/A02]
Second: Cc1ccc(C=C2C(=O)Nc3c(Br)cc(Br)cc32)cc1 [10736/A05]
The “PDGF Kinase % Inhibition (P.119)” value of the first is higher: 24.2% for the first, 8.4% for the second.

Compared with O=C1Nc2c(Br)cc(Br)cc2C1=Cc1ccccc1C(F)(F)F [10736/A03], O=C1Nc2c(Br)cc(Br)cc2C1=Cc1ccccc1F [10736/A08] is lower in “PDGF Kinase % Inhibition (P.119)” value: 31.6% for the first, 11.0% for the second.

Going from Cc1cccc(C=C2C(=O)Nc3c(Br)cc(Br)cc32)c1 [10736/A04] to O=C1Nc2c(Br)cc(Br)cc2C1=Cc1cccc(Cl)c1 [10736/A06], the “PDGF Kinase % Inhibition (P.119)” value rises from 13.2% to 32.1%.

Compared with O=C1Nc2c(Br)cc(Br)cc2C1=Cc1cccc(F)c1 [10736/A07], COc1cccc(C=C2C(=O)Nc3c(Br)cc(Br)cc32)c1 [10736/A10] is lower in “PDGF Kinase % Inhibition (P.119)” value: 8.4% for the first, 5.8% for the second.

First: CCc1ccc(C=C2C(=O)Nc3c(Br)cc(Br)cc32)cc1 [10736/A09]
Second: O=C1Nc2c(Br)cc(Br)cc2C1=Cc1ccccc1Cl [10736/A11]
The “PDGF Kinase % Inhibition (P.119)” value of the first is lower: −6.5% for the first, −5.6% for the second.

Compared with O=C1Nc2ccc(I)cc2C1=Cc1ccc(Cl)cc1 [10736/B02], Cc1ccc(C=C2C(=O)Nc3ccc(I)cc32)cc1 [10736/B05] is higher in “PDGF Kinase % Inhibition (P.119)” value: −10.0% for the first, −3.0% for the second.

Compared with O=C1Nc2ccc(I)cc2C1=Cc1ccccc1C(F)(F)F [10736/B03], O=C1Nc2ccc(I)cc2C1=Cc1ccccc1F [10736/B08] is lower in “PDGF Kinase % Inhibition (P.119)” value: 63.2% for the first, −0.4% for the second.

Going from Cc1cccc(C=C2C(=O)Nc3ccc(I)cc32)c1 [10736/B04] to O=C1Nc2ccc(I)cc2C1=Cc1cccc(Cl)c1 [10736/B06], the “PDGF Kinase % Inhibition (P.119)” value rises from 11.9% to 20.7%.

First: O=C1Nc2ccc(I)cc2C1=Cc1cccc(F)c1 [10736/B07]
Second: COc1cccc(C=C2C(=O)Nc3ccc(I)cc32)c1 [10736/B10]
The “PDGF Kinase % Inhibition (P.119)” value of the first is higher: 20.7% for the first, 1.8% for the second.

First: CCc1ccc(C=C2C(=O)Nc3ccc(I)cc32)cc1 [10736/B09]
Second: CCc1ccc(C=C2C(=O)Nc3ccc(S(=O)(=O)NC)cc32)cc1 [10736/D09]
The “PDGF Kinase % Inhibition (P.119)” value of the first is higher: 7.1% for the first, −6.5% for the second.

Going from O=C1Nc2ccc(I)cc2C1=Cc1ccccc1Cl [10736/B11] to CNS(=O)(=O)c1ccc2c(c1)C(=Cc1ccccc1Cl)C(=O)N2 [10736/D11], the “PDGF Kinase % Inhibition (P.119)” value rises from −15.3% to −4.3%.

Going from Cc1c(Br)ccc2c1C(=Cc1ccc(Cl)cc1)C(=O)N2 [10736/C02] to Cc1ccc(C=C2C(=O)Nc3ccc(Br)c(C)c32)cc1 [10736/C05], the “PDGF Kinase % Inhibition (P.119)” value rises from 2.7% to 16.7%.

Compared with Cc1c(Br)ccc2c1C(=Cc1ccccc1C(F)(F)F)C(=O)N2 [10736/C03], Cc1c(Br)ccc2c1C(=Cc1ccccc1Cl)C(=O)N2 [10736/C11] is lower in “PDGF Kinase % Inhibition (P.119)” value: 25.5% for the first, 0.5% for the second.

First: Cc1cccc(C=C2C(=O)Nc3ccc(Br)c(C)c32)c1 [10736/C04]
Second: Cc1c(Br)ccc2c1C(=Cc1cccc(Cl)c1)C(=O)N2 [10736/C06]
The “PDGF Kinase % Inhibition (P.119)” value of the first is lower: 8.4% for the first, 26.4% for the second.

Compared with Cc1c(Br)ccc2c1C(=Cc1cccc(F)c1)C(=O)N2 [10736/C07], COc1cccc(C=C2C(=O)Nc3ccc(Br)c(C)c32)c1 [10736/C10] is lower in “PDGF Kinase % Inhibition (P.119)” value: 14.1% for the first, 1.4% for the second.

First: CCc1ccc(C=C2C(=O)Nc3ccc(Br)c(C)c32)cc1 [10736/C09]
Second: CCc1ccc(C=C2C(=O)Nc3ccc(S(=O)(=O)N4CCOCC4)cc32)cc1 [10736/F09]
The “PDGF Kinase % Inhibition (P.119)” value of the first is lower: −9.6% for the first, 2.7% for the second.

Going from CNS(=O)(=O)c1ccc2c(c1)C(=Cc1ccc(Cl)cc1)C(=O)N2 [10736/D02] to CNS(=O)(=O)c1ccc2c(c1)C(=Cc1ccc(C)cc1)C(=O)N2 [10736/D05], the “PDGF Kinase % Inhibition (P.119)” value rises from −10.5% to 3.6%.

Going from CNS(=O)(=O)c1ccc2c(c1)C(=Cc1ccccc1C(F)(F)F)C(=O)N2 [10736/D03] to CNS(=O)(=O)c1ccc2c(c1)C(=Cc1ccccc1F)C(=O)N2 [10736/D08], the “PDGF Kinase % Inhibition (P.119)” value falls from 14.5% to 1.8%.

Compared with CNS(=O)(=O)c1ccc2c(c1)C(=Cc1cccc(C)c1)C(=O)N2 [10736/D04], CNS(=O)(=O)c1ccc2c(c1)C(=Cc1cccc(Cl)c1)C(=O)N2 [10736/D06] is higher in “PDGF Kinase % Inhibition (P.119)” value: 15.0% for the first, 19.8% for the second.

First: CNS(=O)(=O)c1ccc2c(c1)C(=Cc1cccc(F)c1)C(=O)N2 [10736/D07]
Second: CNS(=O)(=O)c1ccc2c(c1)C(=Cc1cccc(OC)c1)C(=O)N2 [10736/D10]
The “PDGF Kinase % Inhibition (P.119)” value of the first is higher: 4.4% for the first, −2.1% for the second.

Going from O=C1Nc2ccc(S(=O)(=O)Nc3ccc(C(F)(F)F)cc3)cc2C1=Cc1ccc(Cl)cc1 [10736/E02] to Cc1ccc(C=C2C(=O)Nc3ccc(S(=O)(=O)Nc4ccc(C(F)(F)F)cc4)cc32)cc1 [10736/E05], the “PDGF Kinase % Inhibition (P.119)” value falls from 21.5% to 18.5%.

First: O=C1Nc2ccc(S(=O)(=O)Nc3ccc(C(F)(F)F)cc3)cc2C1=Cc1ccccc1C(F)(F)F [10736/E03]
Second: O=C1Nc2ccc(S(=O)(=O)Nc3ccc(C(F)(F)F)cc3)cc2C1=Cc1ccccc1F [10736/E08]
The “PDGF Kinase % Inhibition (P.119)” value of the first is higher: 96.1% for the first, 7.9% for the second.

Compared with Cc1cccc(C=C2C(=O)Nc3ccc(S(=O)(=O)Nc4ccc(C(F)(F)F)cc4)cc32)c1 [10736/E04], O=C1Nc2ccc(S(=O)(=O)Nc3ccc(C(F)(F)F)cc3)cc2C1=Cc1cccc(Cl)c1 [10736/E06] is lower in “PDGF Kinase % Inhibition (P.119)” value: 24.6% for the first, 10.6% for the second.

First: O=C1Nc2ccc(S(=O)(=O)Nc3ccc(C(F)(F)F)cc3)cc2C1=Cc1cccc(F)c1 [10736/E07]
Second: COc1cccc(C=C2C(=O)Nc3ccc(S(=O)(=O)Nc4ccc(C(F)(F)F)cc4)cc32)c1 [10736/E10]
The “PDGF Kinase % Inhibition (P.119)” value of the first is lower: 18.5% for the first, 26.8% for the second.

First: CCc1ccc(C=C2C(=O)Nc3ccc(S(=O)(=O)Nc4ccc(C(F)(F)F)cc4)cc32)cc1 [10736/E09]
Second: O=C1Nc2ccc(S(=O)(=O)Nc3ccc(C(F)(F)F)cc3)cc2C1=Cc1ccccc1Cl [10736/E11]
The “PDGF Kinase % Inhibition (P.119)” value of the first is lower: −0.4% for the first, 0.9% for the second.

Compared with O=C1Nc2ccc(S(=O)(=O)N3CCOCC3)cc2C1=Cc1ccc(Cl)cc1 [10736/F02], Cc1ccc(C=C2C(=O)Nc3ccc(S(=O)(=O)N4CCOCC4)cc32)cc1 [10736/F05] is higher in “PDGF Kinase % Inhibition (P.119)” value: −14.4% for the first, −4.8% for the second.

Compared with O=C1Nc2ccc(S(=O)(=O)N3CCOCC3)cc2C1=Cc1ccccc1C(F)(F)F [10736/F03], O=C1Nc2ccc(S(=O)(=O)N3CCOCC3)cc2C1=Cc1ccccc1F [10736/F08] is lower in “PDGF Kinase % Inhibition (P.119)” value: −3.0% for the first, −20.1% for the second.

Going from Cc1cccc(C=C2C(=O)Nc3ccc(S(=O)(=O)N4CCOCC4)cc32)c1 [10736/F04] to O=C1Nc2ccc(S(=O)(=O)N3CCOCC3)cc2C1=Cc1cccc(Cl)c1 [10736/F06], the “PDGF Kinase % Inhibition (P.119)” value rises from 3.6% to 12.3%.

With O=C1Nc2ccc(S(=O)(=O)N3CCOCC3)cc2C1=Cc1cccc(F)c1 [10736/F07] the “PDGF Kinase % Inhibition (P.119)” value was −4.3%.
